Biological target: T1, dopamine D3 receptor (Homo sapiens, UniProt P35462)
T1 construct: expressed in transfected cells; host or cells: CHO cells (crude cell membranes)
Assay: Binding experiments on cloned dopamine receptors: displacement of [125I]-Iodosulpride
Conditions: cloned human D3 receptor expressed in CHO cells, [125I]-Iodosulpride displacement; pKi accurate to about ±0.2-0.3
Procedure: Binding Experiments on Cloned Dopamine (e.g. D2, D3 and D4) Receptors
Cultures were grown as monolayers or in suspension in standard cell culture media. Cells were recovered by scraping (from monolayers) or by centrifugation (from suspension cultures), and were washed two or three times by suspension in phosphate buffered saline followed by collection by centrifugation. Cell pellets were stored frozen at −80° C. Crude cell membranes were prepared by homogenisation followed by high-speed centrifugation, and characterisation of cloned receptors achieved by radioligand binding.
Preparation of Cho Cell Membranes: Cell Pellets were Gently Thawed at Room temperature, and resuspended in about 20 volumes of ice-cold Extraction buffer; 5 mM EDTA, 50 mM Trizma pre-set crystals (pH7.4@37° C.), 1 mM MgCl2, 5 mM KCl and 120 mM NaCl. The suspension was homogenised using an Ultra-Turrax at full speed for 15 seconds. The homogenate was centrifuged at 18,000 r.p.m for 15 min at 4° C. in a Sorvall RC5C centrifuge. Supernatant was discarded, and homogenate re-suspended in extraction buffer then centrifugation was repeated. The final pellet was resuspended in 50 mM Trizma pre-set crystals (pH 7.4 @ 37° C.) and stored in 1 ml aliquot tubes at −80° C. (D2=3.0E+08 cells, D3=7.0E+07 cells and D4=1.0E+08 cells).
The total volume is 0.2 ml and incubated in a water bath at 37° C. for 40 minutes. Following incubation, samples were filtered onto GF/B Unifilters using a Can berra Packard Filtermate, and washed four times with ice-cold 50 mM Trizma pre-set crystals (pH 7.4 @ 37° C.). The radioactivity on the filters was measured using a Canberra Packard Topcount Scintillation counter. […] For competition curves, 10 serial log concentrations of competing cold drug were used (Dilution range: 10 μM-10 pM). Competition curves were analysed using Inflexion, an iterative curve fitting programme in Excel. Results were expressed as pKi values where pKi=−log 10 [Ki].

T1 sequence (P35462 whole entry): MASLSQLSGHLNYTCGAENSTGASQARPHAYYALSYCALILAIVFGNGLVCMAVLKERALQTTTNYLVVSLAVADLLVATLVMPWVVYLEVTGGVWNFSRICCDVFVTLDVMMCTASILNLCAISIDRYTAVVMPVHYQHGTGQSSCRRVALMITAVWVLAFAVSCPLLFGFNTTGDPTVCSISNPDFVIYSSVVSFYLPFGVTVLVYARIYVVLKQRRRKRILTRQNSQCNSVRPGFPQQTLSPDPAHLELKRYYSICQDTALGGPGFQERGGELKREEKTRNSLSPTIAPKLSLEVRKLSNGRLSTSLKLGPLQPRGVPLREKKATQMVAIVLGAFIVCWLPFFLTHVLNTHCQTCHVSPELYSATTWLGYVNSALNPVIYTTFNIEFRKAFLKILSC

Question: For `Cc1cc(-c2ccc3c(c2)CCN(CCCCSc2nnc(-c4ccc5ncccc5c4)n2C)CC3)no1` [Example 176, 7-(5-Methyl-3-isoxazolyl)-3-(4-{[4-methyl-5-(6-quinolinyl)-4H-1,2,4-triazol-3-yl]thio}butyl)-2,3,4,5-tetrahydro-1H-3-benzazepine], which Ki is on record?
Answer: 0.316 to 10 nM
